Assay results from patent US4590284A, “Pineapple ketone 1'-alkoxyalkyl derivatives” (Hercules Incorporated, priority 1985, dated 1986).
Where two headings read alike, the source gives them in different places.

Columns and labels:
[1] = 0 min
Description: (§1) The disappearance of both compounds is measured by gas chromatography using a six foot long, one-eighth inch diameter column having 15 percent by weight polyethylene glycol with an average molecular weight of 20,000 (Carbowax-20 M, Trademark) on particles of 80 by 100 mesh diatomaceous earth (Chromasorb W, Trademark) and using helium feed at 28 cc. per minute while heating from 100° to 210° C. at 8° per minute. Ten percent solutions of each compound in toluene are stirred at equal rates in the presence of air at ambient temperatures.

[2] = cited from earlier work
[3] = physchem; conditions: toluene
Description: as §1

[4] = Water solubility; type: physicochemical; conditions: in words
[5] = fragranced soaps, six months of storage; cited from earlier work

CC1=C(O)C(=O)C(C)O1 (stereo not drawn) [Pineapple Ketone, 2,5-dimethyl-4-hydroxy-3(2H)-furanone]
% Remaining [1]: 100%
half-life ([2]; pH 4): 120 days
half-life ([2]; pH 7): 12 days
remaining at 15 h [3]: 24%
remaining at 41 h [3]: 18%
remaining at 115 h [3]: 6%
remaining at 138 h [3]: 4%
water solubility [4]: water soluble

CCOC(C)OC1=C(C)OC(C)C1=O (stereo not drawn) [2,5-Dimethyl-4-[(1'-ethoxy)ethoxy]-3(2H)-furanone]
% Remaining [1]: 100%
remaining at 17 h [3]: 95%
remaining at 41 h [3]: 93%
remaining at 116 h [3]: 44%
remaining at 137 h [3]: 38%

CC=Cc1ccc(OC(C)OCC)c(OC)c1 (stereo not drawn) [1'-ethoxyethyl ether of isoeugenol]
stability to discoloration [5]: stable to discoloration

CC=Cc1ccc(O)c(OC)c1 [isoeugenol]
stability to discoloration [5]: causes discoloration
